Laboratory results reported in patent publication US7419976B2, “Diazepanes derivatives useful as IFA inhibitors” (Novartis AG, priority 2003, dated 2008).

Key:
[1] = tested on: allergic contact dermatitis in mice; test: Test Example: inhibition of allergic contact dermatitis (ACD) in vivo, pinnal weight and MPO activity; details: oral single dose 0.01-10.0 mg/kg
Description: Groups of 8 female mice are sensitized epicutaneously with 50 μl of 2% oxazolone on the shaved ventral abdomen (day 1) and challenged with 10 μl of 0.2% oxazolone on the inner surface of the right ear (day 8). The unchallenged left ears serve as normal controls and dermatitis is evaluated from the difference in pinnal weight which is taken as a measure of inflammatory swelling (day 9). In addition, activity of myeloperoxidase (MPO) serving as a measure of leukocyte influx in ear homogenates are determined as described by Bradley et al., J. Invest. Dermatol; 78:206-209 (1982). The animals are treated orally 2 hours after challenge with the test compound of example 10. Activity is calculated as the percentage of inhibition of inflammatory auricular swelling and of MPO activity relative to animals treated with the vehicle alone. For comparison mice are treated intraperitoneally with 100 μl monoclonal anti-mouse LFA-1 antibody 1 hour before challenge and evaluated as described.

LFA-1/ICAM-1 = target: T1, LFA-1/ICAM-1 (Homo sapiens, UniProt P20701); test: Cell free assay: binding of soluble human ICAM-1 to immobilized human LFA-1; details: immobilized human LFA-1, biotinylated ICAM-1, read-out: IC50, inhibition of adhesion of LFA-1 to ICAM-1
T1 construct: endogenous in cells; ICAM-1-Cκ fusion: made in house in the baculovirus system
Description: The assay determines the binding of soluble human ICAM-1 to immobilized human LFA-1. LFA-1 is purified from JY cells, a human lymphoblastoid B cell-line, by immunoaffinity chromatography analogously as described by Dustin et al., J. Immunol. 148, 2654-2663, 1992. ICAM-1 mouse Cκ fusion protein (ICAM-1) is produced using the baculovirus system as described by Weitz-Schmidt et al., Anal. Biochem. 238, 184-190, 1996. Purified LFA-1 is diluted 1:20 in phosphate buffered saline (PBS) containing 2 mM MgCl2, pH 7.4 and coated onto microtiter plates (Nunc) at 37° for 3 hours. Plates are blocked with 1% heat-treated bovine serum albumin in PBS for 2 hours at 37° followed by a washing step using PBS, 2 mM MgCl2, 1% fetal calf serum, pH 7.4 (assay buffer). Compounds of the present invention (10 mM solution in DMSO) are diluted in assay buffer and added to the plates. Biotinylated recombinant ICAM-1 in assay buffer (6 μg/ml) is added and allowed to bind at 37° for one hour. After incubation, wells are washed with assay buffer. Streptavidin-peroxidase diluted 1:5000 in assay buffer is added and incubated for 45 min at 37°. […] The reaction is stopped after 20 minutes and bound ICAM-1 is determined by measuring the optical density at 405 nm in a microplate reader.

[2] = tested on: allergic contact dermatitis in NMRI mice; test: Allergic contact dermatitis (ACD) in vivo test system, oxazolone, auricular weight; details: p.o., 0.03 mg/kg, 2 hours after challenge
Description: Groups of 8 female NMRI mice are sensitized on the shaved abdomen with 50 μl of oxazolone (2% in acetone) and challenged with 10 μl of 0.2% oxazolone on the inner surface of the right ear 7 days later. The unchallenged left ears serve as normal controls and dermatitis is evaluated from the individual differences in auricular weights, which are taken as a measure of inflammatory swelling 24 hours after the challenge. Dermatitis is evaluated in test- and control groups. The test groups are treated with the test compounds orally (2 hours after challenge), the controls are treated similarly with the vehicles alone. For oral administration the compounds are administered in an oil in H2O emulsion. The data of the test- and the vehicle-treated control groups are statistically analysed by ANOVA followed by Dunnet T-test (normal distribution or data) or by H and U-test, respectively. […] For example, compound of Example 14 has an inhibiting effect in this assay of >30% when administered p.o. at a dose of 0.03 mg/kg.

T1 sequence (P20701 26-1170): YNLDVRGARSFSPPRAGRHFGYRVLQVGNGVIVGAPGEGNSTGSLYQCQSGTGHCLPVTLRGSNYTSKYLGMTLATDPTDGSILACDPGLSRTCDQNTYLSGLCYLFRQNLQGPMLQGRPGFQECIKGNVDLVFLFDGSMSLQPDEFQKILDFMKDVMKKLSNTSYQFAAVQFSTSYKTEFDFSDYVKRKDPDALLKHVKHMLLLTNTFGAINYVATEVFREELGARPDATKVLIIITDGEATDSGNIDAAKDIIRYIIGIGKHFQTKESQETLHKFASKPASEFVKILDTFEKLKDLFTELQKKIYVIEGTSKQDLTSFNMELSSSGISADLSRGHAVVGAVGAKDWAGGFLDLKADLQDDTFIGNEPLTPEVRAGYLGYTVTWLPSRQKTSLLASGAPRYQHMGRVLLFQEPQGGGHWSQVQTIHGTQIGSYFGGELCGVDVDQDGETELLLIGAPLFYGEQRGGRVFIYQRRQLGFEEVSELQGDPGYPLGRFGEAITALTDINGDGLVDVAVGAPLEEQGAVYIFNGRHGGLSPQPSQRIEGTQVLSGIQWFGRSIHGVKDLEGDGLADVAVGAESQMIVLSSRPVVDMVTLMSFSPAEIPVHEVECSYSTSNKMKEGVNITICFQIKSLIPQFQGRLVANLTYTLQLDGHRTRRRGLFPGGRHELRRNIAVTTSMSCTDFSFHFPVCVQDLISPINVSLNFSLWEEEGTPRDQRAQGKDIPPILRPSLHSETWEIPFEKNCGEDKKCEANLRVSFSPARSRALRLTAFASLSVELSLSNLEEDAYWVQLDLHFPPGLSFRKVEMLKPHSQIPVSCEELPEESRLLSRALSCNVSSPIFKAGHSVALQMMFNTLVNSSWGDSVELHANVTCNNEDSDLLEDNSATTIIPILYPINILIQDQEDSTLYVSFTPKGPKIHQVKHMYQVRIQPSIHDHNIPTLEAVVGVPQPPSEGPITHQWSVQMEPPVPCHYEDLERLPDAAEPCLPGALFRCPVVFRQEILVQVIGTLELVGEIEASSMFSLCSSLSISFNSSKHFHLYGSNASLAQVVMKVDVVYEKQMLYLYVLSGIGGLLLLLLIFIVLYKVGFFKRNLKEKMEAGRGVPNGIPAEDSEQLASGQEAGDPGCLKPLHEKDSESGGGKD
T1 sequence (P05107 23-769 partner): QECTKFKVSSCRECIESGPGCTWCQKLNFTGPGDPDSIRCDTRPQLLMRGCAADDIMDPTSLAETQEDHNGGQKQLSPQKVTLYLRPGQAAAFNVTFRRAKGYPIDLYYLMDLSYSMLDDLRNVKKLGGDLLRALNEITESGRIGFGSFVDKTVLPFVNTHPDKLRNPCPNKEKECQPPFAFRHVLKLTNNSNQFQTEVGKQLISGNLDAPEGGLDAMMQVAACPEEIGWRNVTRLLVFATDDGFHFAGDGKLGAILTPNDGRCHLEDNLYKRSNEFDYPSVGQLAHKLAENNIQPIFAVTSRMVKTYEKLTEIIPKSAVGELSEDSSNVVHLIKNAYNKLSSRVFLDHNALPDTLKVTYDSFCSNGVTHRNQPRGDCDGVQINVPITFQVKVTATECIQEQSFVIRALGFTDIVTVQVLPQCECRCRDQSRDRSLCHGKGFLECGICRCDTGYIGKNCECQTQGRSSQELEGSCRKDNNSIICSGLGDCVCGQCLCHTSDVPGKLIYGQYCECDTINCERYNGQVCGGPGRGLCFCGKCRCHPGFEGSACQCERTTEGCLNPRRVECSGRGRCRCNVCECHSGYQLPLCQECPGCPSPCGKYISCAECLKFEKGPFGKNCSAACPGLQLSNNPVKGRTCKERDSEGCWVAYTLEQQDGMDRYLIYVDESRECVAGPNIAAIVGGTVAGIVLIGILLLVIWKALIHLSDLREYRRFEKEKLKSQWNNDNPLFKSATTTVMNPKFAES

Row | Compound | inhibition of the inflammatory response ([1]; 2 hours after challenge) | inhibition of MPO activity versus inhibition of swelling ([1]; ear homogenates) | IC50 (LFA-1/ICAM-1) [nM] | inhibiting effect in allergic contact dermatitis (auricular swelling) [2] [%]
1 | C[C@@H]1CCN([C@H](Cc2cccc3ccccc23)C(N)=O)C(=O)[C@H](c2ccc(F)c(Cl)c2)N1C(=O)Cc1ccc2ncccc2c1 [Example 10, (R)-2-[(3S,5R)-3-(3-Chloro-4-fluoro-phenyl)-5-methyl-2-oxo-4-(2-quinolin-6-yl-acetyl)-[1,4]diazepan-1-yl]-3-naphthalen-1-yl-propionamide] | 40-50% | Inhibition of swelling compared with inhibition of MPO activity is observed | – | –
2 | C[C@@H]1CCN([C@H](Cc2cccc3ccccc23)C(N)=O)C(=O)[C@H](c2cccc(Cl)c2)N1C(=O)Cc1ccc2c(c1)OCO2 [Example 14, (R)-2-[(3S,5R)-4-(2-Benzo[1,3]dioxol-5-yl-acetyl)-3-(3-chloro-phenyl)-5-methyl-2-oxo-[1,4]diazepan-1-yl]-3-naphthalen-1-yl-propionamide] | – | – | 90 | > 30
3 | CC1CCN(C(Cc2cccc3ccccc23)C(N)=O)C(=O)C(c2cccc(F)c2)N1C(=O)Cc1ccc2c(c1)OCO2 [Example 13, (R)-2-[4-(2-Benzo[1,3]dioxol-5-yl-acetyl)-3,5-cis-3-(3-fluoro-phenyl)-5-methyl-2-oxo-[1,4]diazepan-1-yl]-3-naphthalen-1-yl-propionamide] | – | – | 430 | –
